The results in this text go back to patent US20220264878A1, “HERBICIDAL COMPOSITION CONTAINING R-TYPE PYRIDYLOXY CARBOXYLIC ACID DERIVATIVE AND USE THEREOF” (Qingdao Kingagroot Chemical Compound Co., Ltd., priority 2019, published 2022).

SMILES strings stand for the structures.

Holding throughout (assay type): in vivo
The test system of one assay is Conyza Canadensis. Nature of the assay: Post-emergence foliage spray on Conyza Canadensis with a height of 10 cm, fresh weight inhibition (Tables 207-216; 24 days). The following applies: 24 days after treatment. Here is the method: (§1) The above weeds were cultivated by a pot culture method. […] Full and uniform weed seeds were selected, soaked in warm water at 25° C. for 6 hours, and germinated in a 28° C. biochemical incubator (darkness). The weed seeds that had just germinatedwere evenly placed on the surface of the soil and then covered with 0.5-1 cm soil according to the sizes of seeds.
(§2) The technical materials were all dissolved in acetone, and diluted with an aqueous solution containing 0.1% emulsifier Tween-80. The dilution is performed as required.
(§3) A ratio of the active ingredient A to the active ingredient B and amounts thereof in each group depends on the characteristics and toxicity of the two agents, as well as the main application purpose of a corresponding formulation. Based on the pre-tests in this study, the dosage of the active ingredient A and B applied alone and in combination were shown in the tables. Water containing the solvent and emulsifier same with the above groups but free of the agents was used as a blank control.
In the stage of weeds with 6˜8 leaves, the weeds were thinned out to maintain 3 weeds per pot and 30 weeds for each treatment, then continued to be cultured to Conyza Canadensis with a height of 10 cm, and treated.
(§4) The well-cultured weeds were evenly placed on a platform with an area of 0.5 m^2, and a solution of agents was sprayed on the stems and leaves thereof by the 3WP-2000-type walking spray tower at a dosage of 450 kg/ha and at a spray pressure of 0.3 MPa. After all the solution was sprayed, the valve was closed. After 30 seconds, the door of the spray tower was opened, and the nutritional bowl was taken out. Then the valve was opened, and the spray tube was cleaned by spraying 50 ml of water.
(§5) A pot-culture method was employed. For the cultivation of weeds, please refer to the Section 1.1), and “Pesticide guidelines for laboratory bioactivity tests—herbicides”. As to a method for applying agents, please refer to the section 2.3.2), that is, a foliage treatment was employed. After the treatment, the weeds were routinely cultured in a greenhouse.
(§6) A method for investigating absolute number was employed, wherein whole seedlings of survival weeds were cut off with a blade along the soil surface, and the fresh weight of the weeds was weighed with an analytical balance. For dead weeds, the fresh weight thereof was zero.
Wherein, in the formula, X represented the fresh weight inhibition rate of the active ingredient A in a dosage of P, and Y represented the fresh weight inhibition rate of the active ingredient B in a dosage of Q.

In another assay the test system is Beckmannia syzigachne. The assay can be described thus: Post-emergence foliage spray, pot culture, fresh weight inhibition (Tables 1-48, 51-98, 101-148; 24 days).
Text: (§7) Table 1-48, 51-98, 101-148: Echinochloa crusgalli var. zelayensis, Eclipta prostrate, Galium aparine L., Alopecurus aequalis, Alopecurus japonicus, Lindernia procumbens, Veronica persica^1, Malachium aquaticum, Beckmannia syzigachne, Stellaria media were collected in Huai'an of Jiangsu Province; Commelina communis, Sonchus arvensis, Setaria glauca, Chloris virgata, Setaria faberi, Sonchus oleraceus L., Echinochloa oryzoides, Cirsium setosum, Xanthium strumarium were collected in Qiqiha'er of Heilongjiang Province; Sinapis arvensis, Veronica persica^2 were collected in Zhumadian of Henan Province; Ludwigia prostrate, Ammannia arenaria were collected in Zhuji of Zhejiang Province; Amaranthus retrojlexus, Descurainia sophia, Digitaria sanguinalis, Setaria viridis, Conyza Canadensis, Capsella bursa-pastoris, Eleusine indica, Ipomoea purpurea, Abutilon theophrasti, Chenopodium album, Acalypha australis, Solanum nigrum were collected in Qingdao of Shandong Province; Echinochloa caudate were collected in Pingluo of Ningxia Province.
as §1
(§8) The culture was carried out in a controllable sunlight greenhouse at 20 to 30° C., in natural light, and relative humidity of 57% to 72%.
as §2, §3
(§9) Table 1-48, 51-98, 101-148, 151-206: […] per treatment, that is, a total of 60 weeds were treated in one treatment.
(§10) Table 1-48, 51-98, 101-148: The agents were used for only once in the experiment. In the stage of weeds with 3˜4 leaves, the weeds were thinned out to maintain 15 weeds per pot and 45 weeds for each treatment, then continued to be cultured to 5˜6 leaves stage of grassy weeds, 6˜7 leaves stage of broadleaf weeds, and treated.
as §4, §5, §6
(§11) Table 1-48, 51-98, 101-148, 207-216: The investigation was performed after 24 days of the treatment for only once.

The next assay deals with Alopecurus japonicus. The description is as above.
Text: as §7, §1, §8, §2, §3, §9, §10, §4, §5, §6, §11

Another assay concerns Acalypha australis. Described as above.
Text: as §7, §1, §8, §2, §3, §9, §10, §4, §5, §6, §11

Another assay deals with Chenopodium album. The assay is described as above. A digest of the protocol: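 Pot-grown weeds were thinned to 15 per pot (45 per treatment) and sprayed on foliage at the 5–6-leaf stage for grasses or the 6–7-leaf stage for broadleaves. Agents were dissolved in acetone with 0.1% Tween-80 and applied at 450 kg/ha spray volume and 0.3 MPa. Plants were then kept in a greenhouse. Above-ground fresh weight of survivors, with dead plants counted as zero, gave inhibition versus a solvent/emulsifier blank.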

For the compound `Cc1cc(Cl)ccc1OCC(=O)O` [MCPA], the “Control effect (%) of B applied alone in corresponding dose” value (“Control effect (%) of B applied alone” below) with Conyza Canadensis (B alone 75 g a.i./ha) is on record as 18.8%.

On to `Nc1cc(Cl)nc(C(=O)O)c1Cl` [aminopyralid], for which the “Control effect (%) of B applied alone” value in the assay on Conyza Canadensis (B alone 15 g a.i./ha) is 19.0%; in the assay on Conyza Canadensis (B alone 30 g a.i./ha) it was 40.7%.

Regarding `Cc1ccc(NC(=O)N(C)C)cc1Cl` [chlorotoluron], the “Control effect (%) of B applied alone” value is 5.5% in the assay on Beckmannia syzigachne (B 75 g a.i./ha); 16.8% with Beckmannia syzigachne (B 150 g a.i./ha); 41.1% in the assay on Beckmannia syzigachne (B 300 g a.i./ha); 72.1% in the assay on Beckmannia syzigachne (B 600 g a.i./ha); 2.9% in the assay with Alopecurus japonicus (chlorotoluron 75 g a.i./ha); 13.1% in the assay with Alopecurus japonicus (chlorotoluron 150 g a.i./ha). The “Control effect (%) of B applied alone” value in the assay on Alopecurus japonicus (chlorotoluron 300 g a.i./ha) came out at 39.8%; with Alopecurus japonicus (chlorotoluron 600 g a.i./ha) it was 71.9%.

As for `C#CCOC(=O)[C@@H](C)Oc1ccc(Oc2ncc(Cl)cc2F)cc1` [clodinafop-propargyl], the “Control effect (%) of B applied alone” value with Beckmannia syzigachne (B 3.75 g a.i./ha) is recorded as 10.3%; in the assay on Beckmannia syzigachne (B 7.5 g a.i./ha), 20.1%; in the assay on Beckmannia syzigachne (B 15 g a.i./ha), 59.6%; with Beckmannia syzigachne (B 30 g a.i./ha) it was 81.2%; with Alopecurus japonicus (clodinafop-propargyl 3.75 g a.i./ha), 3.0%; in the assay on Alopecurus japonicus (clodinafop-propargyl 7.5 g a.i./ha) it was 10.6%. The “Control effect (%) of B applied alone” value is 57.8% with Alopecurus japonicus (clodinafop-propargyl 15 g a.i./ha) and 79.9% with Alopecurus japonicus (clodinafop-propargyl 30 g a.i./ha).

Turning to `O=C(O)c1nc(Cl)ccc1Cl` [clopyralid], the “Control effect (%) of B applied alone” value was 6.1% in the assay with Conyza Canadensis (B alone 15 g a.i./ha), 29.8% in the assay with Conyza Canadensis (B alone 30 g a.i./ha), 53.5% in the assay with Conyza Canadensis (B alone 60 g a.i./ha) and 82.8% in the assay on Conyza Canadensis (B alone 120 g a.i./ha).

In the case of `Cn1[nH]c(C2CC2)c(C(=O)c2ccc(C(F)(F)F)c(N3CCCCC3=O)c2Cl)c1=O` [cypyrafluone], the “Control effect (%) of B applied alone” value in the assay with Beckmannia syzigachne (B 18.75 g a.i./ha) stood at 9.0%; in the assay with Beckmannia syzigachne (B 37.5 g a.i./ha), 14.2%; with Beckmannia syzigachne (B 75 g a.i./ha), 56.3%; with Beckmannia syzigachne (B 150 g a.i./ha), 81.8%; with Alopecurus japonicus (cypyrafluone 18.75 g a.i./ha), 4.0%; in the assay with Alopecurus japonicus (cypyrafluone 37.5 g a.i./ha), 24.9%. Besides, the “Control effect (%) of B applied alone” value in the assay with Alopecurus japonicus (cypyrafluone 75 g a.i./ha) came to 54.8%; in the assay with Alopecurus japonicus (cypyrafluone 150 g a.i./ha), 81.3%.

For the compound `COc1c(Cl)ccc(Cl)c1C(=O)O` [dicamba], in the assay on Conyza Canadensis (B alone 150 g a.i./ha), the “Control effect (%) of B applied alone” value was 58.7%.

On to `CS(=O)(=O)NC(=O)c1cc(Oc2ccc(C(F)(F)F)cc2Cl)ccc1[N+](=O)[O-]` [fomesafen], for which the “Control effect (%) of B applied alone” value in the assay on Acalypha australis (B 22.5 g a.i./ha) is listed as 6.4%; in the assay with Acalypha australis (B 45 g a.i./ha) it was 12.6%; in the assay on Acalypha australis (B 90 g a.i./ha) it was 46.9%; in the assay on Acalypha australis (B 180 g a.i./ha), 82.4%; in the assay with Chenopodium album (Table 91, 22.5 g a.i./ha) it was 2.7%; in the assay on Chenopodium album (Table 91, 45 g a.i./ha), 18.6%. The “Control effect (%) of B applied alone” value with Chenopodium album (Table 91, 90 g a.i./ha) is on record as 45.4%; in the assay on Chenopodium album (Table 91, 180 g a.i./ha) it was 81.9%.

Turning to `CC(C)c1ccc(NC(=O)N(C)C)cc1` [isoproturon], the “Control effect (%) of B applied alone” value is recorded as 7.0% in the assay with Beckmannia syzigachne (B 75 g a.i./ha); 15.9% in the assay on Beckmannia syzigachne (B 150 g a.i./ha); 57.6% in the assay on Beckmannia syzigachne (B 300 g a.i./ha); 76.6% in the assay with Beckmannia syzigachne (B 600 g a.i./ha); 2.5% with Alopecurus japonicus (isoproturon 75 g a.i./ha); 11.4% in the assay with Alopecurus japonicus (isoproturon 150 g a.i./ha). Moreover, the “Control effect (%) of B applied alone” value in the assay with Alopecurus japonicus (isoproturon 300 g a.i./ha) was determined as 56.5%; with Alopecurus japonicus (isoproturon 600 g a.i./ha) it was 75.9%.

As for `CCOC(=O)C(C)OC(=O)c1cc(Oc2ccc(C(F)(F)F)cc2Cl)ccc1[N+](=O)[O-]` (stereo not drawn) [lactofen], the “Control effect (%) of B applied alone” value with Acalypha australis (B 7.5 g a.i./ha) worked out at 2.7%; with Acalypha australis (B 15 g a.i./ha) it was 13.5%; in the assay on Acalypha australis (B 30 g a.i./ha) it was 41.4%; in the assay on Acalypha australis (B 60 g a.i./ha), 66.4%; with Chenopodium album (Table 94, 7.5 g a.i./ha), 3.3%; in the assay with Chenopodium album (Table 94, 15 g a.i./ha), 10.4%. Besides, the “Control effect (%) of B applied alone” value with Chenopodium album (Table 94, 30 g a.i./ha) was found to be 39.7%; in the assay with Chenopodium album (Table 94, 60 g a.i./ha) it was 65.4%.

For `CCOc1cc(Oc2ccc(C(F)(F)F)cc2Cl)ccc1[N+](=O)[O-]` [oxyfluorfen], the “Control effect (%) of B applied alone” value with Acalypha australis (B 7.5 g a.i./ha) stood at 4.6%; with Acalypha australis (B 15 g a.i./ha), 12.4%; in the assay on Acalypha australis (B 30 g a.i./ha), 32.7%; with Acalypha australis (B 60 g a.i./ha), 68.9%; in the assay with Chenopodium album (Table 93, 7.5 g a.i./ha), 3.6%; with Chenopodium album (Table 93, 15 g a.i./ha), 11.9%. The “Control effect (%) of B applied alone” value was 30.7% in the assay with Chenopodium album (Table 93, 30 g a.i./ha) and 68.1% in the assay with Chenopodium album (Table 93, 60 g a.i./ha).

As for `CCc1cc(C)cc(CC)c1-c1c(OC(=O)C(C)(C)C)n2n(c1=O)CCOCC2` [pinoxaden], the “Control effect (%) of B applied alone” value amounted to 7.9% in the assay with Beckmannia syzigachne (B 3.75 g a.i./ha); 18.0% with Beckmannia syzigachne (B 7.5 g a.i./ha); 43.5% with Beckmannia syzigachne (B 15 g a.i./ha); 72.6% in the assay with Beckmannia syzigachne (B 30 g a.i./ha); 2.5% with Alopecurus japonicus (pinoxaden 3.75 g a.i./ha); 12.1% in the assay on Alopecurus japonicus (pinoxaden 7.5 g a.i./ha). Further, the “Control effect (%) of B applied alone” value in the assay on Alopecurus japonicus (pinoxaden 15 g a.i./ha) is given as 41.7%; with Alopecurus japonicus (pinoxaden 30 g a.i./ha) it was 71.8%.
